Data on one compound can be found in article PMC4768256, “Using mutagenesis to explore conserved residues in the RNA-binding groove of influenza A virus nucleoprotein for antiviral drug development” (Scientific Reports, 2016).

SMILES strings stand for the structures.

The target of this assay is T1, NP (nucleoprotein of influenza A virus H1N1, full-length wild type) (Influenza A virus (A/Nanchang/11/1996(H1N1)), UniProt Q07FI1).
T1 construct: full-length (498 aa), N-terminal 6xHis-tag as printed, pET21b NdeI/XhoI, E. coli, Ni-NTA, RNase-treated lysate
In kind it is binding.

T1 sequence (Q07FI1 whole entry): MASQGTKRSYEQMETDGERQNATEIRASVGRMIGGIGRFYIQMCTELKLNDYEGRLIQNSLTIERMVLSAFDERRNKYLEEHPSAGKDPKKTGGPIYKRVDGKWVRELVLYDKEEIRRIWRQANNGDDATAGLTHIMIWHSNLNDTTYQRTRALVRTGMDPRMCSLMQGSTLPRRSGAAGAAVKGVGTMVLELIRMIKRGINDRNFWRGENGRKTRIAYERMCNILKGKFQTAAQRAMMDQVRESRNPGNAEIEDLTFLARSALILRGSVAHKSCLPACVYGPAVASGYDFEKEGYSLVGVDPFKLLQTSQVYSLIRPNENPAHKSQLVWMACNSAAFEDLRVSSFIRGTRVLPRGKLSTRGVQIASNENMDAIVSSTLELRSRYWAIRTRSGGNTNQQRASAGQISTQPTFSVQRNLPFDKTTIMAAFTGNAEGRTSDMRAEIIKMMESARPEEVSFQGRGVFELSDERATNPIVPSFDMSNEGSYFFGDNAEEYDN

Turning to `COc1cc(/C=C/C(=O)CC(=O)/C=C/c2ccc(O)c(OC)c2)ccc1O` [H7, (E,E)-1,7-bis(4-hydroxy-3-methoxyphenyl)-1,6-heptadiene-3,5-dione], binding was put at a Kd of 1220 nM.
